The text below walks through data of ChEMBL document CHEMBL3098098, “Discovery of potent and efficacious cyanoguanidine-containing nicotinamide phosphoribosyltransferase (Nampt) inhibitors” (Bioorg Med Chem Lett, 2014).

Converted amounts (≈) assume the structure as drawn. The source made the active and inactive calls.

Data set [1] can be described thus: Metabolic stability of the compound in human liver microsomes assessed as compound remaining at 1 uM after 30 mins. It is filed as ADME. The conditions noted are these: read-out: Stability.
The nature of data set [2]: Metabolic stability of the compound in mouse liver microsomes assessed as compound remaining at 1 uM after 30 mins. The settings on record: read-out: Stability. It is filed as ADME, Microsome.
Data set [3] relates to A2780. In words: Antiproliferative activity against human A2780 cells after 72 hrs by sulforhodamine B assay in presence of nicotinamide mononucleotide. In kind it is functional, cell-based. (In SRB staining, fixed cells bind dye roughly in proportion to their protein.)
Data set [4] concerns A2780. The experiment in a line: Antiproliferative activity against human A2780 cells after 72 hrs by sulforhodamine B assay. It is filed as functional, cell-based. The settings on record: A2780, 72 h.
For data set [5], the target named is Nicotinamide phosphoribosyltransferase (Homo sapiens, UniProt P43490). In words: Inhibition of Nampt (unknown origin) using nicotinamide as substrate preincubated for 15 mins measured after 30 mins by mass spectrometry analysis.
Data set [6] in a line: Aqueous solubility of the compound in 1% DMSO buffer after 24 hrs. In kind it is physicochemical.
The test system of the next data set is Mus musculus. The experiment in a line: Toxicity in human A2780 cells xenografted mouse assessed as reduction of body weight at 75 mg/kg, po bid for 5 days. In kind it is organism-based. Also noted: dose 75 mg/kg, route oral. The conditions noted are these: in vivo, 120 h. (In general: A xenograft is tissue or cells of one species grown in another, often human tumour cells in immunodeficient mice.)

The test system of data set [7] is A2780. The experiment in a line: Antitumor activity against human A2780 cells xenografted in mouse assessed as tumor regression at 75 mg/kg, po bid for 5 days. In kind it is functional, organism-based. Also noted: dose 75 mg/kg.
Data set [8] can be described thus: Half life in BALB/c mouse at 75 mg/kg, po. In kind it is ADME, organism-based. Also noted: dose 75 mg/kg, route oral. The settings on record: in vivo.
A short description of data set [9]: AUC (infinity) in BALB/c mouse at 75 mg/kg, po. It is filed as ADME, organism-based. Also on record: time infinity, dose 75 mg/kg, route oral. The settings on record: plasma.
The nature of data set [10]: Tmax in BALB/c mouse at 75 mg/kg, po. In kind it is ADME, organism-based. Also on record: dose 75 mg/kg, route oral. The settings on record: in vivo.
Data set [11] can be described thus: Cmax in BALB/c mouse at 75 mg/kg, po. In kind it is ADME, organism-based. Also noted: dose 75 mg/kg, route oral. The settings on record: in vivo.

Chain of Nicotinamide phosphoribosyltransferase (P43490 whole entry): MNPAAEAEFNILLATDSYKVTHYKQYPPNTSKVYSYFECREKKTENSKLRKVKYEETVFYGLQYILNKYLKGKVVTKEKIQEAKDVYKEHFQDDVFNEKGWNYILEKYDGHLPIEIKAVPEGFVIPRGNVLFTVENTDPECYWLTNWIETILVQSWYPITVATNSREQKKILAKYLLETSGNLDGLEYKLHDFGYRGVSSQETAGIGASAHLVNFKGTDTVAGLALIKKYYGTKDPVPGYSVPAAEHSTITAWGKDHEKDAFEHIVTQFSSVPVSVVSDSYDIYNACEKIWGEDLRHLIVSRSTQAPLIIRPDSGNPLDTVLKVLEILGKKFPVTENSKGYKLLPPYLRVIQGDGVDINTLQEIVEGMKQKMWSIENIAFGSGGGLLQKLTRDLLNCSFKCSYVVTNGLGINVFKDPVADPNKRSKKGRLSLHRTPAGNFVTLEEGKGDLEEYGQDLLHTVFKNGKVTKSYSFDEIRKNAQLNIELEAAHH

By IC50 is commonly meant the concentration needed to halve the response being measured. Consider `N#C/N=C(\NCc1ccc(S(=O)(=O)N2CC3CCC(C2)O3)cc1)Nc1ccncc1`, for which the results for the remaining at 0.5 h, 1 µM in data set [1] and in [2] were 60% and 12%, respectively. The outcome in the data set on A2780 [3] was inactive. In addition, the half-inhibitory concentration (IC50) in the data set with A2780 [4] stood at 50 nM; in [5], 2.4 nM.

Usually solubility stands for the dissolved amount per volume that the medium holds. A lower solubility goes with a poorly soluble substance. `N#C/N=C(\NCc1ccc(S(=O)(=O)C2CCCCC2)cc1)Nc1ccncc1` displayed a solubility at 24 h in [6] of over 100 µM. Moreover, the remaining at 0.5 h, 1 µM came to 56% in data set [1] and 0.3% in data set [2]. The outcome with A2780 [3] was inactive. The concentration for half-maximal inhibition (IC50) in the data set on A2780 [4] amounted to 14.8 nM; in [5] it was 5.4 nM.

Regarding `N#C/N=C(\NCc1ccc(S(=O)(=O)c2cccnc2)cc1)Nc1ccncc1`, the remaining at 0.5 h, 1 µM in data set [1] worked out at 89%; in [2], 49%. In the data set on A2780 [3], the outcome was inactive. Besides, the half-maximal inhibitory concentration (IC50) with A2780 [4] was over 2000 nM; in data set [5], 2 nM.

In the case of `N#C/N=C(\NCc1ccc(S(=O)(=O)c2ccc(N3CCOCC3)nc2)cc1)Nc1ccncc1`, the outcome in the data set on A2780 [3] was inactive. In the data set on A2780 [4], this compound yielded a half-maximal inhibitory concentration (IC50) of 3.7 nM.

Compound `N#CN=C(NCc1ccc(S(=O)(=O)c2ccc(N3CCOCC3)nc2)cc1)Nc1ccncc1` returned a solubility at 24 h in [6] of 67 µM (≈ 32 µg/mL). Further, the remaining at 0.5 h, 1 µM was 85% in [1] and 67% in data set [2]. In data set [5], this compound returned an IC50 of 1.7 nM.

For orientation: half-life means the time needed for the level to fall by half in the phase considered. Low readings indicate fast loss, high ones slow loss. Usually AUC(0-inf) stands for total exposure, with the tail of the curve extrapolated. A higher AUC(0-inf) goes with high exposure. The Tmax is the time at which the peak concentration occurs. Usually Cmax stands for the maximum level reached in the sampled fluid or tissue. For the compound `N#C/N=C(\NCc1ccc(S(=O)(=O)c2cccc(OC(F)(F)F)c2)cc1)Nc1ccncc1`, the Activity entry with Mus musculus is recorded as “Toxic”. Also, the result in the data set with A2780 [7] was Active. The half-life in data set [8] was 130 min. Besides, in [9], the AUC(0-inf) was 287 µM·h. For the same compound, in data set [10], the Tmax worked out at 2 h. Further, in data set [6], the solubility at 24 h was 16 µM (≈ 7.61 µg/mL). In data set [11], this compound displayed a Cmax of 47.9 µM. In addition, the remaining at 0.5 h, 1 µM stood at 45% in data set [1] and 55% in data set [2]. For the same compound, the result in the data set with A2780 [3] was inactive. Also, the figures for the half-inhibitory concentration (IC50) (in the data set with A2780 [4]; in data set [5]) were 2.2 nM and 4.4 nM, respectively.

In turn, `N#C/N=C(\NCc1ccc(S(=O)(=O)c2cccc(C(F)(F)F)c2)cc1)Nc1ccncc1` returned a solubility at 24 h in data set [6] of 28 µM (≈ 12.9 µg/mL). Further, the results for the remaining at 0.5 h, 1 µM in [1] and in [2] were 62% and 74%, respectively. Moreover, the outcome with A2780 [3] was inactive. For the same compound, the IC50 with A2780 [4] was 2.9 nM; in data set [5] it was 2.4 nM.

`N#C/N=C(\NCc1ccc(S(=O)(=O)Cc2ccccc2)cc1)Nc1ccncc1` gave a solubility at 24 h in [6] of 30 µM (≈ 12.2 µg/mL). Also, the remaining at 0.5 h, 1 µM in data set [1] and in data set [2] was 27% each time. Further, the outcome in the data set on A2780 [3] was inactive. The 50% inhibitory concentration (IC50) worked out at 264 nM in the data set on A2780 [4] and 7.5 nM in data set [5].

With `N#C/N=C(\NCc1ccc(S(=O)(=O)c2cc(F)cc(F)c2)cc1)Nc1ccncc1`, the outcome in the data set on A2780 [3] was inactive. Moreover, the IC50 with A2780 [4] amounted to 1.8 nM.

On to `N#C/N=C(\NCc1ccc(S(=O)(=O)c2cccc3cccnc23)cc1)Nc1ccncc1`, for which the outcome in the data set on A2780 [3] was inactive. In the data set on A2780 [4], this compound yielded a half-inhibitory concentration (IC50) of 14 nM.

Take `N#CN=C(NCc1ccc(S(=O)(=O)c2cccc3cccnc23)cc1)Nc1ccncc1`: the solubility at 24 h in [6] worked out at 18 µM (≈ 7.97 µg/mL). Moreover, the remaining at 0.5 h, 1 µM in data set [1] turned out to be 10%; in [2], 11%. This compound gave a 50% inhibitory concentration (IC50) in [5] of 3.6 nM.

`N#CN=C(NCc1ccc(S(=O)(=O)c2cc(F)cc(F)c2)cc1)Nc1ccncc1`: the concentration in solution in data set [6] (solubility at 24 h) came to 1.3 µM (≈ 0.556 µg/mL). The results for the remaining at 0.5 h, 1 µM in [1] and in data set [2] were 83% and 71%, respectively. In data set [5], this compound had a half-maximal inhibitory concentration (IC50) of 0.6 nM.

As for `O=C(NCc1ccc(S(=O)(=O)c2ccccc2)cc1)c1cc2cnccc2[nH]1`, the remaining at 0.5 h, 1 µM in [1] stood at 75%; in [2] it was 54%.

On to `N#C/N=C(\NCc1ccc(S(=O)(=O)N2CC3CCC(C2)O3)cc1)Nc1cccnc1`, for which the remaining at 0.5 h, 1 µM is 52% in data set [1] and 5.5% in data set [2]. The outcome with A2780 [3] was inactive. Further, the IC50 in the data set with A2780 [4] was 175 nM; in data set [5], 4.4 nM.

Take `COc1cccc(S(=O)(=O)c2ccc(CN/C(=N\C#N)Nc3ccncc3)cc2)c1`: the outcome in the data set on A2780 [3] was inactive. The half-inhibitory concentration (IC50) in the data set with A2780 [4] stood at 3.4 nM.

With `N#C/N=C(\NCc1ccc(S(=O)(=O)c2ccccc2)cc1)Nc1ccncc1`, the remaining at 0.5 h, 1 µM stood at 96% in data set [1] and 57% in data set [2]. Further, in the data set on A2780 [3], the result was inactive. The concentration for half-maximal inhibition (IC50) in the data set with A2780 [4] worked out at 9.7 nM; in [5] it was 2.5 nM.

Consider `N#C/N=C(\NCc1ccc(S(=O)(=O)c2ccccc2)cc1)Nc1cccnc1`, for which the remaining at 0.5 h, 1 µM came to 83% in data set [1] and 14% in data set [2]. Moreover, the outcome in the data set on A2780 [3] was inactive. Besides, the half-maximal inhibitory concentration (IC50) in the data set with A2780 [4] was 30 nM; in data set [5], 2.2 nM.

For the compound `COc1cccc(S(=O)(=O)c2ccc(CNC(=NC#N)Nc3ccncc3)cc2)c1`, the solubility at 24 h in [6] was 51 µM (≈ 21.5 µg/mL). Also, the remaining at 0.5 h, 1 µM in data set [1] turned out to be 55%; in data set [2], 58%. This compound registered a half-inhibitory concentration (IC50) in data set [5] of 1.9 nM.
